From ChEMBL document CHEMBL4811242, “Mechanistic selectivity investigation and 2D-QSAR study of some new antiproliferative pyrazoles and pyrazolopyridines as potential CDK2 inhibitors” (Eur J Med Chem, 2021)
pIC50, pKi: −log10 of the molar value.

Legend:
[1] = test system: MCF7; assay: Cytotoxicity against human MCF7 cells
[2] = test system: HepG2; assay: Cytotoxicity against human HepG2 cells
[3] = test system: HepG2; assay: Antiproliferative activity against human HepG2 cells assessed as inhibition of cell growth after 48 hrs by MTT assay; type: functional, cell-based; conditions: HepG2, 48 h
[4] = molecular target: CDK2/Cyclin A2 (Homo sapiens, UniProt P24941); assay: Inhibition of CDK2/Cyclin A2 (unknown origin) after 10 mins by ADP-Glo reagent based assay; type: protein-complex assay
[5] = test system: MCF7; assay: Antiproliferative activity against human MCF7 cells assessed as inhibition of cell growth after 48 hrs by MTT assay; type: functional, cell-based; conditions: MCF7, 48 h
[6] = test system: HepG2; assay: Induction of apoptosis in human HepG2 cells assessed as total apoptotic cells at IC50 after 48 hrs by Annexin V-FITC/propidium iodide staining based flow cytometric analysis (reference value: 1.52 %); type: functional
[7] = test system: HepG2; assay: Induction of apoptosis in human HepG2 cells assessed as late apoptotic cells at IC50 after 48 hrs by Annexin V-FITC/propidium iodide staining based flow cytometric analysis (reference value: 0.18 %); type: functional
[8] = test system: HepG2; assay: Induction of cell cycle arrest in human HepG2 cells assessed as accumulation at pre-G1 phase at IC50 after 48 hrs by propidium iodide staining based Flow cytometric analysis (reference value: 1.52%); type: functional
[9] = molecular target: Cyclin-dependent kinase 1/cyclin B1 (Homo sapiens, UniProt P06493); assay: Inhibition of CDK1/cyclin B (unknown origin); type: protein-complex assay
Cyclin-dependent kinase 1/cyclin B1, sequence (P06493 whole entry): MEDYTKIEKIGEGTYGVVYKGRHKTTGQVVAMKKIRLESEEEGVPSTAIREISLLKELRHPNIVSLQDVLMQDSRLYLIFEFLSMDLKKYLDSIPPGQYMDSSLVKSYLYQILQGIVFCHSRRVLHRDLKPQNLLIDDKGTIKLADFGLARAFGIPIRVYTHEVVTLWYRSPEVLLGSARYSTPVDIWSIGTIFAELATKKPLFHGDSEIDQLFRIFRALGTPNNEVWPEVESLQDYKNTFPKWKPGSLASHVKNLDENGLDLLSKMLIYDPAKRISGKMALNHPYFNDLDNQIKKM
Cyclin-dependent kinase 1/cyclin B1, sequence (P14635 whole entry, further chain): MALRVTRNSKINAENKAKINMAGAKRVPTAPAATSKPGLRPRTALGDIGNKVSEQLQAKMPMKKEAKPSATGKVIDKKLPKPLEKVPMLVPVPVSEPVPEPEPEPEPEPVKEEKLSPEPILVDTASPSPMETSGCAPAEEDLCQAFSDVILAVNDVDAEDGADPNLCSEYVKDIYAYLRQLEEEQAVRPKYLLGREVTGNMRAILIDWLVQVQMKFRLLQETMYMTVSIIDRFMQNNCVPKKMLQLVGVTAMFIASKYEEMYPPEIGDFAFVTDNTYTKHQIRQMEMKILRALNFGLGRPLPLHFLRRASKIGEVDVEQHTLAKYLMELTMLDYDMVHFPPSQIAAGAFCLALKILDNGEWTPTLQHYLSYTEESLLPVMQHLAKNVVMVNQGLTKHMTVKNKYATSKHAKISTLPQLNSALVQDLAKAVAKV

[10] = test system: HepG2; assay: Induction of cell cycle arrest in human HepG2 cells assessed as accumulation at G2/M phase at IC50 after 48 hrs by propidium iodide staining based Flow cytometric analysis (reference value: 7.34%); type: functional
[11] = test system: HepG2; assay: Induction of apoptosis in human HepG2 cells assessed as early apoptotic cells at IC50 after 48 hrs by Annexin V-FITC/propidium iodide staining based flow cytometric analysis (reference value: 0.38 %); type: functional
[12] = molecular target: Cyclin-dependent kinase 4/cyclin D1 (Homo sapiens, UniProt P11802); assay: Inhibition of CDK4/cyclin D1 (unknown origin); type: protein-complex assay
Cyclin-dependent kinase 4/cyclin D1, sequence (P11802 whole entry): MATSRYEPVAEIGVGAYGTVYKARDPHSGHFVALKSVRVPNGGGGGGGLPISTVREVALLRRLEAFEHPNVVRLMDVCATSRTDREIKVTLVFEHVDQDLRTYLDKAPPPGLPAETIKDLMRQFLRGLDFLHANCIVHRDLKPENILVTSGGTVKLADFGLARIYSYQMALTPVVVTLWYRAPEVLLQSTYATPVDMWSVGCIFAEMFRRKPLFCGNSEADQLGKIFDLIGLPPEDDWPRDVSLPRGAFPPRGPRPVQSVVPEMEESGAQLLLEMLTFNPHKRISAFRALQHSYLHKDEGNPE
Cyclin-dependent kinase 4/cyclin D1, sequence (P24385 whole entry, further chain): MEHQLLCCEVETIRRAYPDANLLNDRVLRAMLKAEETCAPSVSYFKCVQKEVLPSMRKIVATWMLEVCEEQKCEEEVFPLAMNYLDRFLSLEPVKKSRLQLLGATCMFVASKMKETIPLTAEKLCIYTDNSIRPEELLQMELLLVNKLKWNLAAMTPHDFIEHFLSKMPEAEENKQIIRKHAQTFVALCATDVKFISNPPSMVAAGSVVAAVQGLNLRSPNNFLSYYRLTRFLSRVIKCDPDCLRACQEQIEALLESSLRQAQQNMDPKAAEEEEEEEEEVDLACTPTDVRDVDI

[13] = test system: HepG2; assay: Induction of apoptosis in human HepG2 cells assessed as fold increase in caspase-3 activation at IC50 by ELISA; type: functional
[14] = test system: HepG2; assay: Induction of apoptosis in human HepG2 cells assessed as caspase-3 concentration at IC50 by ELISA (reference value: 0.03822 +/- 0.0029 ng/ml); type: functional
[15] = test system: HepG2; assay: Induction of cell cycle arrest in human HepG2 cells assessed as accumulation at S phase at IC50 after 48 hrs by propidium iodide staining based Flow cytometric analysis (reference value: 45.37%); type: functional
[16] = Selectivity index, ratio of CC50 for human THLE2 cells to IC50 for human HepG2 cells; type: toxicity; conditions: THLE2 cells and HepG2 cells, read-out: Ratio CC50/IC50
[17] = test system: HepG2; assay: Induction of cell cycle arrest in human HepG2 cells assessed as accumulation at G0/G1 phase at IC50 after 48 hrs by propidium iodide staining based Flow cytometric analysis (reference value: 47.29%); type: functional
[18] = molecular target: Cyclin-dependent kinase 7/ cyclin H (Homo sapiens, UniProt P50613); assay: Inhibition of CDK7/cyclin H (unknown origin); type: protein-complex assay
Cyclin-dependent kinase 7/ cyclin H, sequence (P51946 whole entry): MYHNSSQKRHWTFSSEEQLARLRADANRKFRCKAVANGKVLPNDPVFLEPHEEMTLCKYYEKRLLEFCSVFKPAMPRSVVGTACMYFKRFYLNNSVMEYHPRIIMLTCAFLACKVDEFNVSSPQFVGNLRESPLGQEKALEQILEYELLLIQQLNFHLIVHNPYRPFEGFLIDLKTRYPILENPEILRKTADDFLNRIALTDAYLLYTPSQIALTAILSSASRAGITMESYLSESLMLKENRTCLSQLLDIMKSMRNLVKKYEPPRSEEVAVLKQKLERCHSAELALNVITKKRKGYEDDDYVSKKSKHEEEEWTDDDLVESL
Cyclin-dependent kinase 7/ cyclin H, sequence (P50613 whole entry): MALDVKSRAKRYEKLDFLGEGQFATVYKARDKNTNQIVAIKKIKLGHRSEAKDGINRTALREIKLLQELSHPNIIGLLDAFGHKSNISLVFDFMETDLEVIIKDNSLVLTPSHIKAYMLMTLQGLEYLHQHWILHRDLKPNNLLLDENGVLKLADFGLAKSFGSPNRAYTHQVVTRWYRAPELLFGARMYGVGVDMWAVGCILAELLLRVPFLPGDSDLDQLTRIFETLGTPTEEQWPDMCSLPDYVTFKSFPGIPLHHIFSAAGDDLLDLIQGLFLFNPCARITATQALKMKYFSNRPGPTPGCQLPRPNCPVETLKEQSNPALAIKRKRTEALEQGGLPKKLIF

[19] = Cytotoxicity against human THLE2 cells assessed as reduction in cell viability by MTT assay; type: cell-based, THLE-2
[20] = test system: MCF7; assay: Induction of apoptosis in human MCF7 cells assessed as late apoptotic cells at IC50 after 48 hrs by Annexin V-FITC/propidium iodide staining based flow cytometric analysis (reference value: 0.28 %); type: functional
[21] = Selectivity index, ratio of CC50 for human MCF10A cells to IC50 for human MCF7 cells; type: toxicity; conditions: MCF10A cells and MCF7 cells, read-out: Ratio CC50/IC50
[22] = test system: MCF7; assay: Induction of apoptosis in human MCF7 cells assessed as fold increase in caspase-9 concentration at IC50 by ELISA; type: functional
[23] = test system: MCF7; assay: Induction of apoptosis in human MCF7 cells assessed as early apoptotic cells at IC50 after 48 hrs by Annexin V-FITC/propidium iodide staining based flow cytometric analysis (reference value: 0.57 %); type: functional
[24] = test system: MCF7; assay: Induction of cell cycle arrest in human MCF7 cells assessed as accumulation at G0/G1 phase at IC50 after 48 hrs by propidium iodide staining based Flow cytometric analysis (reference value: 55.71%); type: functional
[25] = test system: MCF7; assay: Induction of apoptosis in human MCF7 cells assessed as total apoptotic cells at IC50 after 48 hrs by Annexin V-FITC/propidium iodide staining based flow cytometric analysis (reference value: 1.84 %); type: functional
[26] = test system: MCF7; assay: Induction of apoptosis in human MCF7 cells assessed as caspase-9 concentration at IC50 by ELISA (reference value: 2.018 +/- 0.14 ng/ml); type: functional
[27] = test system: MCF7; assay: Induction of cell cycle arrest in human MCF7 cells assessed as accumulation at pre-G1 phase at IC50 after 48 hrs by propidium iodide staining based Flow cytometric analysis (reference value: 1.84%); type: functional
[28] = test system: MCF7; assay: Induction of cell cycle arrest in human MCF7 cells assessed as accumulation at G2/M phase at IC50 after 48 hrs by propidium iodide staining based Flow cytometric analysis (reference value: […]%); type: functional
[29] = Cytotoxicity against human MCF10A cells assessed as reduction in cell viability by MTT assay; type: cell-based, MCF-10A
[30] = test system: MCF7; assay: Induction of cell cycle arrest in human MCF7 cells assessed as accumulation at S phase at IC50 after 48 hrs by propidium iodide staining based Flow cytometric analysis (reference value: 39.15%); type: functional

SMILES	pIC50 [3]	pIC50 [4]	pIC50 [5]	selectivity ratio [16]	CC50 [19] [nM]	other results
CC(C)c1cnn2c(NCc3ccccc3)cc(N[C@@H](CO)[C@H](O)CO)nc12						pIC50 [1]: 6.52; pIC50 [2]: 6.00
Cc1ccc(C(=O)C=CNc2cc(-c3ccccc3)nn2-c2ccccc2)cc1	5.14	7.20	4.52			
COc1ccc(-c2nc3c(c(-c4ccccc4)nn3-c3ccccc3)c(-c3ccc(N4CCN(C)CC4)cc3)c2C#N)cc1	5.88	7.18	5.58	28.2	37500	pKi [4]: 7.40; Activity [6]: 22.2%; Activity [7]: 11.17%; Activity [8]: 22.15%; pIC50 [9]: 6.68; pKi [9]: 6.90; Activity [10]: 3.62%; Activity [11]: 6.07%; pIC50 [12]: 3.98; pKi [12]: 4.24; fold change (FC) [13]: 10; Activity [14]: 0.3714 ng/mL; Activity [15]: 48.36%; Activity [17]: 48.02%; pIC50 [18]: 6.65; pKi [18]: 6.84
O=C(C=CNc1cc(-c2ccccc2)nn1-c1ccccc1)c1cccs1	5.62	6.70	4.81	8.22	19900	
Brc1ccc(-c2ccnc3c2c(-c2ccccc2)nn3-c2ccccc2)cc1	4.30	7.09	4.88			
O=C(C=CNc1cc(-c2ccccc2)nn1-c1ccccc1)c1ccc(Br)cc1	5.06	6.29	4.66			
O=C(C=CNc1cc(-c2ccccc2)nn1-c1ccccc1)c1ccc(Cl)cc1	4.39	6.91	5.09			
CN1CCN(c2ccc(-c3c(C#N)c(-c4ccc(Cl)cc4)nc4c3c(-c3ccccc3)nn4-c3ccccc3)cc2)CC1	4.84	6.89	5.57			
Clc1ccc(-c2ccnc3c2c(-c2ccccc2)nn3-c2ccccc2)cc1	4.21	6.41	4.21			
COc1ccc(-c2ccnc3c2c(-c2ccccc2)nn3-c2ccccc2)cc1	5.18	6.57	4.54			
N#Cc1c(-c2ccc(Cl)cc2)nc2c(c(-c3ccccc3)nn2-c2ccccc2)c1-c1ccc(N2CCCCC2)cc1	5.49	6.71	4.97	3.89	12500	
Cc1ccc(-c2ccnc3c2c(-c2ccccc2)nn3-c2ccccc2)cc1	4.97	7.09	5.25			
c1ccc(-c2ccnc3c2c(-c2ccccc2)nn3-c2ccccc2)cc1	5.49	6.46	4.55	10.7	34200	

More lines, in order of rising pIC50 [3], values ahead:

pIC50 [3]	pIC50 [4]	pIC50 [5]	SMILES	selectivity ratio [16]	CC50 [19] [nM]	other results
4.22	6.88	5.04	O=C(C=CNc1cc(-c2ccccc2)nn1-c1ccccc1)c1ccc(F)cc1			
4.41	7.25	4.41	c1ccc(-c2nn(-c3ccccc3)c3nccc(-c4cccs4)c23)cc1			
4.51	6.48	4.57	N#Cc1c(-c2ccccc2)nc2c(c(-c3ccccc3)nn2-c2ccccc2)c1-c1ccc(N2CCCCC2)cc1			
4.67	6.19	5.44	N#Cc1c(-c2ccc(Cl)cc2)nc2c(c(-c3ccccc3)nn2-c2ccccc2)c1-c1ccc(N2CCOCC2)cc1			
4.90	7.07	5.56	COc1ccc(-c2nc3c(c(-c4ccccc4)nn3-c3ccccc3)c(-c3ccc(N4CCCCC4)cc3)c2C#N)cc1			
4.98	7.02	5.48	N#Cc1c(-c2ccccc2)nc2c(c(-c3ccccc3)nn2-c2ccccc2)c1-c1ccc(N2CCOCC2)cc1			
5.09	6.66	6.03	COc1ccc(-c2nc3c(c(-c4ccccc4)nn3-c3ccccc3)c(-c3ccc(N4CCOCC4)cc3)c2C#N)cc1			Activity [20]: 9.86%; pKi [4]: 6.88; pIC50 [9]: 6.14; pKi [9]: 6.36; selectivity ratio [21]: 59.9; fold change (FC) [22]: 9; Activity [23]: 9.36%; pIC50 [12]: 4.67; pKi [12]: 4.94; Activity [24]: 44.38%; Activity [25]: 24.4%; Activity [26]: 20.32 ng/mL; Activity [27]: 24.36%; Activity [28]: 21.2%; CC50 [29]: 55700 nM; Activity [30]: 34.42%; pIC50 [18]: 6.50; pKi [18]: 6.69
5.14		5.73	COc1cccc2c1C(=O)c1c(O)c3c(c(O)c1C2=O)C[C@@](O)(C(=O)CO)C[C@@H]3O[C@H]1C[C@H](N)[C@H](O)[C@H](C)O1 [DOXORUBICIN]		12700	CC50 [29]: 13900 nM
5.50	6.79	4.84	CN1CCN(c2ccc(-c3c(C#N)c(-c4ccccc4)nc4c3c(-c3ccccc3)nn4-c3ccccc3)cc2)CC1	4.8	15100	
5.58	6.50	5.02	O=C(C=CNc1cc(-c2ccccc2)nn1-c1ccccc1)c1ccccc1	20.1	53400	
5.69	7.38	5.89	COc1ccc(C(=O)C=CNc2cc(-c3ccccc3)nn2-c2ccccc2)cc1	17.3	35200	Activity [20]: 20.64%; pKi [4]: 7.60; pIC50 [9]: 6.02; pKi [9]: 6.24; selectivity ratio [21]: 13.1; fold change (FC) [22]: 9; Activity [23]: 2.69%; pIC50 [12]: 4.78; pKi [12]: 5.04; Activity [24]: 37.29%; Activity [25]: 36.51%; Activity [26]: 18.96 ng/mL; Activity [27]: 36.51%; Activity [28]: 3.47%; CC50 [29]: 16900 nM; Activity [30]: 59.24%; pIC50 [18]: 6.49; pKi [18]: 6.68
5.80	7.38	5.80	Fc1ccc(-c2ccnc3c2c(-c2ccccc2)nn3-c2ccccc2)cc1	12.5	19700	pKi [4]: 7.60; Activity [6]: 32.19%; Activity [7]: 17.43%; Activity [8]: 32.19%; pIC50 [9]: 5.87; pKi [9]: 6.08; Activity [10]: 37.64%; selectivity ratio [21]: 18; Activity [11]: 6.15%; pIC50 [12]: 5.16; pKi [12]: 5.42; fold change (FC) [13]: 10; Activity [14]: 0.3872 ng/mL; Activity [15]: 23.89%; Activity [17]: 38.47%; CC50 [29]: 28300 nM; pIC50 [18]: 5.70; pKi [18]: 5.90
